Experimental data from US20070049593A1 (priority 2004, published 2007).
Where a name gives a salt, the structure may show the parent alone.

Target: T1, HCV polymerase (Hepatitis C virus genotype 1b, UniProt P26663)
T1 construct: a region encoding NS5B (J Virol 1991 March, 65(3), 1105-13, 544 amino acids after deletion of 47 amino acids on the C-terminal); 6xHis (C); made in house; host or cells: Escherichia coli
Experiment: biochemical
Set-up: species or system HCV BK strain
In short: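 His-tagged NS5B (BK strain, 47-aa C-terminal deletion, E. coli-expressed) at 0.5 μg/ml copied 5 μg/ml run-off RNA bearing the HCV 3′ UTR with 2 μM UTP plus [3H]UTP, 50 μM ATP/GTP, in pH 7.5 Tris with 5 mM MgCl2, 25 °C, 90 min. TCA-precipitated RNA was counted and IC50 calculated.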

T1 sequence (P26663 2420-2963): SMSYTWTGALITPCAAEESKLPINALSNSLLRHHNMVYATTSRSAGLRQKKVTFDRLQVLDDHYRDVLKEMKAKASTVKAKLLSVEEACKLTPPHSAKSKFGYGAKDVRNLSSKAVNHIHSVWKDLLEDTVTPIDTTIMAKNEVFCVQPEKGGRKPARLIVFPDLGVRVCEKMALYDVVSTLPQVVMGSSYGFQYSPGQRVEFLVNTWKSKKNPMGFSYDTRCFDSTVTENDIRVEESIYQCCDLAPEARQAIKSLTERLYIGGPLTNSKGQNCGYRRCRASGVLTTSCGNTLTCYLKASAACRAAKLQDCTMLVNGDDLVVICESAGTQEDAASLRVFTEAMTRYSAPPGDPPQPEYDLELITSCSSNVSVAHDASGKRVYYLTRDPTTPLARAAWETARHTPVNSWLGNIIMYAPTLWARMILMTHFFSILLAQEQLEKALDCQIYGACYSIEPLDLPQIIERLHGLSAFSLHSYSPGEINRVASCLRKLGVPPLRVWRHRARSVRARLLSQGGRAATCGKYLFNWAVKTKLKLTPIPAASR

SMILES	IC50 [nM]
CC(C)(C)OC(=O)N1CCCC(Oc2ccc3c(c2)OCCn2c-3c(C3CCCCC3)c3ccc(C(=O)O)cc32)C1 (centres unmarked) [Example 2-11, 3-(1-tert-butoxycarbonylpiperidin-3-yloxy)-12-cyclohexyl-6,7-dihydro-5-oxa-7a-azadibenzo[a,e]azulene-9-carboxylic acid]	< 100
CS(=O)(=O)c1ccc(N2CCOCC2)c(COc2ccc3c(c2)OCCn2c-3c(C3CCCCC3)c3ccc(C(=O)O)cc32)c1 [Example 2-12, 12-cyclohexyl-3-[5-methanesulfonyl-2-(morpholin-4-yl)benzyloxy]-6,7-dihydro-5-oxa-7a-azadibenzo[a,e]azulene-9-carboxylic acid monohydrochloride]	< 100
CS(=O)(=O)N1CCN(c2ccc(N3CCCC3=O)cc2COc2ccc3c(c2)OCCn2c-3c(C3CCCCC3)c3ccc(C(=O)O)cc32)CC1 [Example 2-13, 12-cyclohexyl-3-[2-(4-methanesulfonylpiperazin-1-yl)-5-(2-oxopyrrolidin-1-yl)benzyloxy]-6,7-dihydro-5-oxa-7a-azadibenzo[a,e]azulene-9-carboxylic acid monohydrochloride]	< 100
O=C(O)c1ccc2c(C3CCCCC3)c3n(c2c1)CCOc1cc(OCc2ccccc2N2CCOCC2)ccc1-3 [Example 2-14, 12-cyclohexyl-3-[2-(morpholin-4-yl)benzyloxy]-6,7-dihydro-5-oxa-7a-azadibenzo[a,e]azulene-9-carboxylic acid monohydrochloride]	< 100
CC(=O)Nc1ccc(N2CCOCC2)c(COc2ccc3c(c2)OCCn2c-3c(C3CCCCC3)c3ccc(C(=O)O)cc32)c1 [Example 2-15, 3-[5-acetylamino-2-(morpholin-4-yl)benzyloxy]-12-cyclohexyl-6,7-dihydro-5-oxa-7a-azadibenzo[a,e]azulene-9-carboxylic acid monohydrochloride]	< 100
CN(C)CC(=O)Nc1ccc(N2CCOCC2)c(COc2ccc3c(c2)OCCn2c-3c(C3CCCCC3)c3ccc(C(=O)O)cc32)c1 [Example 2-16, 12-cyclohexyl-3-[5-(2-dimethylaminoacetylamino)-2-(morpholin-4-yl)benzyloxy]-6,7-dihydro-5-oxa-7a-azadibenzo[a,e]azulene-9-carboxylic acid dihydrochloride]	< 100
CS(=O)(=O)Nc1ccc(N2CCOCC2)c(COc2ccc3c(c2)OCCn2c-3c(C3CCCCC3)c3ccc(C(=O)O)cc32)c1 [Example 2-17, 12-cyclohexyl-3-[5-methanesulfonylamino-2-(morpholin-4-yl)benzyloxy]-6,7-dihydro-5-oxa-7a-azadibenzo[a,e]azulene-9-carboxylic acid monohydrochloride]	< 100
CC(=O)N(C)c1ccc(N2CCOCC2)c(COc2ccc3c(c2)OCCn2c-3c(C3CCCCC3)c3ccc(C(=O)O)cc32)c1 [Example 2-18, 3-[5-(N-acetyl-N-methylamino)-2-(morpholin-4-yl)benzyloxy]-12-cyclohexyl-6,7-dihydro-5-oxa-7a-azadibenzo[a,e]azulene-9-carboxylic acid monohydrochloride]	< 100
CN(c1ccc(N2CCOCC2)c(COc2ccc3c(c2)OCCn2c-3c(C3CCCCC3)c3ccc(C(=O)O)cc32)c1)S(C)(=O)=O [Example 2-19, 12-cyclohexyl-3-[5-(N-methanesulfonyl-N-methylamino)-2-(morpholin-4-yl)benzyloxy]-6,7-dihydro-5-oxa-7a-azadibenzo[a,e]azulene-9-carboxylic acid monohydrochloride]	< 100
O=C(O)c1ccc2c(C3CCCCC3)c3n(c2c1)CCOc1cc(Oc2ccccc2)ccc1-3 [Example 2-20, 12-cyclohexyl-3-phenoxy-6,7-dihydro-5-oxa-7a-azadibenzo[a,e]azulene-9-carboxylic acid]	< 100
O=C(CN1CCOCC1)Nc1ccc(N2CCOCC2)c(COc2ccc3c(c2)OCCn2c-3c(C3CCCCC3)c3ccc(C(=O)O)cc32)c1 [Example 2-21, 12-cyclohexyl-3-{2-(morpholin-4-yl)-5-[2-(morpholin-4-yl)acetylamino]benzyloxy}-6,7-dihydro-5-oxa-7a-azadibenzo[a,e]azulene-9-carboxylic acid dihydrochloride]	< 100
CN(C(=O)CN1CCOCC1)c1ccc(N2CCOCC2)c(COc2ccc3c(c2)OCCn2c-3c(C3CCCCC3)c3ccc(C(=O)O)cc32)c1 [Example 2-22, 12-cyclohexyl-3-[5-{N-methyl-N-[2-(morpholin-4-yl)acetyl]amino}-2-(morpholin-4-yl)benzyloxy]-6,7-dihydro-5-oxa-7a-azadibenzo[a,e]azulene-9-carboxylic acid dihydrochloride]	< 100
CN(C)CC(=O)N(C)c1ccc(N2CCOCC2)c(COc2ccc3c(c2)OCCn2c-3c(C3CCCCC3)c3ccc(C(=O)O)cc32)c1 [Example 2-23, 12-cyclohexyl-3-(5-[N-(2-dimethylaminoacetyl)-N-methylamino]-2-(morpholin-4-yl)benzyloxy]-6,7-dihydro-5-oxa-7a-azadibenzo[a,e]azulene-9-carboxylic acid dihydrochloride]	< 100
COC(=O)N1CCCC(Oc2ccc3c(c2)OCCn2c-3c(C3CCCCC3)c3ccc(C(=O)O)cc32)C1 (centres unmarked) [Example 2-24, 12-cyclohexyl-3-(1-methoxycarbonylpiperidin-3-yloxy)-6,7-dihydro-5-oxa-7a-azadibenzo[a,e]azulene-9-carboxylic acid]	< 100
COc1ccc(Oc2ccc3c(c2)OCCn2c-3c(C3CCCCC3)c3ccc(C(=O)O)cc32)cc1 [Example 2-25, 12-cyclohexyl-3-(4-methoxyphenoxy)-6,7-dihydro-5-oxa-7a-azadibenzo[a,e]azulene-9-carboxylic acid]	< 100
O=C(O)c1ccc2c(C3CCCCC3)c3n(c2c1)CCOc1cc(Oc2cccc(Cl)c2)ccc1-3 [Example 2-26, 3-(3-chlorophenoxy)-12-cyclohexyl-6,7-dihydro-5-oxa-7a-azadibenzo[a,e]azulene-9-carboxylic acid]	< 100
CN(C)C(=O)CN1CCN(c2ccc(N3CCCC3=O)cc2COc2ccc3c(c2)OCCn2c-3c(C3CCCCC3)c3ccc(C(=O)O)cc32)CC1 [Example 2-27, 12-cyclohexyl-3-[2-(4-dimethylcarbamoylmethylpiperazin-1-yl)-5-(2-oxopyrrolidin-1-yl)benzyloxy]-6,7-dihydro-5-oxa-7a-azadibenzo[a,e]azulene-9-carboxylic acid dihydrochloride]	< 100
CCN1CCN(c2ccc(N3CCCC3=O)cc2COc2ccc3c(c2)OCCn2c-3c(C3CCCCC3)c3ccc(C(=O)O)cc32)CC1 [Example 2-28, 12-cyclohexyl-3-[2-(4-ethylpiperazin-1-yl)-5-(2-oxopyrrolidin-1-yl)benzyloxy]-6,7-dihydro-5-oxa-7a-azadibenzo[a,e]azulene-9-carboxylic acid dihydrochloride]	< 100
O=C(O)c1ccc2c(C3CCCCC3)c3n(c2c1)CCOc1cc(Oc2cccnc2)ccc1-3 [Example 2-29, 12-cyclohexyl-3-(pyridin-3-yloxy)-6,7-dihydro-5-oxa-7a-azadibenzo[a,e]azulene-9-carboxylic acid monohydrochloride]	< 100
O=C(O)c1ccc2c(C3CCCCC3)c3n(c2c1)CCOc1cc(Oc2ccccc2Cl)ccc1-3 [Example 2-30, 3-(2-chlorophenoxy)-12-cyclohexyl-6,7-dihydro-5-oxa-7a-azadibenzo[a,e]azulene-9-carboxylic acid]	< 100
